Source: patent US20180221329A1, “CIS- AND TRANS-SUFFRUTICOSOL D AS THERAPEUTIC AGENTS” (MIDDLE TENNESSEE STATE UNIVERSITY, priority 2015, published 2018)

Columns and labels:
[1] = system: BT20 (estrogen receptor-negative human breast adenocarcinoma) cells; assay: Cell proliferation assay (AlamarBlue), BT20; type: cell-based; details: for IC50: BT20, 48 h, AlamarBlue; for Selectivity: BT20 versus normal HMEC cells
Protocol: Cell culture. Four human cancer cell lines including A549 (lung carcinoma), BT20 (estrogen receptor-negative human breast adenocarcinoma), MCF-7 (estrogen receptor-positive human breast adenocarcinoma) and U2OS (human osteosarcoma) were purchased from American Type Culture Collection (ATCC). An A549 cell line that stably expresses Green Fluorescent Protein (GFP) was purchased from Cell BioLabs Inc. (San Diego, Calif., USA). A549, A549-GFP and BT20 cells were cultured in RPMI 1640 media (Sigma-Aldrich, St. Louis, Mo., USA), MCF7 cells were cultured in DMEM medium (ATCC, Manassas, Va., USA), and U20S cells were cultured in McCoy's 5A medium (ATCC, Manassas, Va., USA). As a control, HMEC cells (primary human mammary breast epithelial cells) were purchased from ATCC and cultured in McCoy's 5A medium. All medium contained 10% FBS (Sigma-Aldrich, St. Louis, Mo., USA) and 1% streptomycin and penicillin (Sigma-Aldrich, St. Louis, Mo., USA). These cells were incubated in a humid environment with 5% CO2 at 37° C.
Cell proliferation assay. The resazurin reduction reagent AlamarBlue (Invitrogen, Frederick, Md., USA) was used to evaluate the cytotoxicity of the compounds. Cells were plated at a density of 5×10^3 cells per well in 96-well microplates with 100 μl culture medium, and were allowed to attach for 16 h prior to treatment. Next, all the medium was replaced with medium containing the cis- or trans-suffruticosol D compounds at seven different concentrations: 320, 100, 32, 10, 3.2, 1.0, and 0.32 μM. The cells were placed in an incubator for 48 h at 37° C. Cells that were treated with medium-containing vehicle (1% DMSO) only serve as negative control. Subsequently, AlamarBlue solution was added to the medium and the cells were incubated in the CO2 incubator for 1 h. The fluorescent intensity change of the dye was measured at Ex 555 nm and Em 590 nm using a plate reader (Molecular Devices, Sunnyvale, Calif., USA). The cytotoxicity was examined by determining by IC50, the dose that inhibited 50% of cell growth, using GraphPad Prism software (GraphPad Software, La Jolla, Calif., USA).
Table 1. IC50 values of cis- and trans-suffruticosol D in selected cancer and normal cell lines. Cells were treated with various concentrations of cis- or trans-suffruticosol D for 48 h, and the viability of cells was evaluated with AlamarBlue dye.

A549 cells = assay: Apoptosis assay (Annexin V/7-AAD flow cytometry); type: cell-based, human; details: 24 h
Protocol: FIGS. 2A-E depict induction of apoptosis by cis- and trans-suffruticosol D in A549 cells. After 24 h treatment by cis- or trans-suffruticosol D, A549 cells were stained with Annexin V/7-amino-actinomycin D (7-AAD) and the percentage of apoptotic cells, as measured by fluorescence intensity, was assessed by flow cytometry. Cells treated with the vehicle, 1% dimethylsulfoxide, DMSO, only served as a negative control.
Apoptosis assay. The FlowCellect Annexin Red Kit (EMD Millipore, Billerica, Mass., USA) was used to determine the apoptosis rate in A549 cells according to the manufacturer's instructions. Briefly, A549 cells were plated in 96-well plates. After a 24 h treatment with cis- or trans-suffruticosol D at concentrations of 100, 32, and 10 μM, the floating and attached cells were collected for analysis. The cells were centrifuged at 700×g for 7 min and were resuspended in 100 μL Assay Buffer (EMD Millipore, Billerica, Mass., USA). Afterwards, the cells were stained with annexin-V for 15 min and 7-amino-actinomycin D (7-AAD) for 5 min, and examined with a Guava EasyCyte Flow Cytometer (EMD Millipore, Billerica, Mass., USA). Data was analyzed using Guava InCyte software.

[2] = system: apoptotic proteins in A549 cells; assay: Apoptosis antibody array; type: cell-based, human; details: 50 μM, 6 h
Protocol: F, Effect of cis- or trans-suffruticosol D on key regulatory proteins of apoptosis, Hsp60, Hsp70, survivin, and X-linked inhibitor of apoptosis protein (XIAP) (n=4).
Apoptosis antibody array. The Human Apoptosis Antibody Array Kit (RayBiotech, Inc., Norcross, Ga. USA) was used to evaluate apoptotic protein expression according to the manufacturer's instructions. A549 cells were plated at 8,000 cells/well intensity in a 96-well plate and then treated with cis or trans-suffruticosol D at a concentration of 50 μM for 6 h. The cells were lysed in lysis buffer with protease inhibitors. The cell lysates were concentrated using a protein concentration column (EMD Millipore, Billerica, Mass., USA) to a total protein concentration of 2 mg/ml. The samples were then diluted 10 fold with assay buffer and incubated with an array membrane for 2 h at room temperature, and washed with washing buffer five times. Subsequently, the cocktail of biotin-conjugated antibody mix was added to the membrane and incubated overnight at 4° C. The samples were then incubated with HRP-conjugated streptavidin for 2 h at room temperature and chemiluminescence substrate was used to detect the signal. Image Studio software (LI-COR Biotechnology) was used to quantify the intensity of each array dot and then normalized to the internal control.

A549-GFP cells = assay: Cell motility assay (fluorescent bead track area); type: cell-based, human; details: 18 h, medium with 10% FBS
Protocol: FIGS. 4A and 4B depict cell motility changes induced by cis- and trans-suffruticosol D in A549 cells. A549-GFP cells were seeded in 96-well plate with a monolayer of fluorescent beads. After treatment with cis- or trans-suffruticosol D for 18 h, individual cell movement was evaluated by measuring the fluorescent track area. Cells treated with serum free medium served as a negative control and cells treated with medium containing 10% serum served as a positive control.
Cell motility assay. A 96-well collagen plate (Corning, N.Y., USA) was coated with blue fluorescent beads (Life Technologies, Eugene, Oreg., USA) as follows. The beads were centrifuged for 1 min at 14,000 g and washed twice with PBS, then 75 μl beads were added to each well of the 96-well collagen plate and incubated for 1 h at 37° C. The cells were seeded on the lawn of fluorescent beads and the sizes of the tracks generated by migrating cells were measured. After the plate was washed 5 times with PBS, A549-GFP cells were seeded at 500 cells/well in the coated plate and incubated for 1 h at 37° C. Subsequently the cells were treated with different concentrations of cis- or trans-suffruticosol D in medium containing 10% FBS for 18 h. Cells treated with serum-free medium serve as the negative control and cells treated with medium containing 10% FBS serve as the positive control. Cell tracks were imaged using an Arrayscan VTI HCS reader (Thermo Scientific, Waltham, Mass., USA) and the data was analyzed by vHCS Scan software. The mean of the full track area per cell for the test compound and the controls was calculated.

Structure (SMILES)	IC50 ([1]; listed as cis-SD) [µM]	Selectivity ([1]; listed as cis-SD)	A549 cells induced into apoptosis (A549 cells; 10 μM) [%]	A549 cells induced into apoptosis (A549 cells; 32 μM) [%]	A549 cells induced into apoptosis (A549 cells; 100 μM) [%]	Hsp60 expression [2]	Hsp70 expression [2]	X-linked inhibitor of apoptosis protein (XIAP) expression [2]	survivin expression [2]	decrease of A549 cell motility (A549-GFP cells; 10 μM) [%]	decrease of A549 cell motility (A549-GFP cells; 32 μM) [%]	decrease of A549 cell motility (A549-GFP cells; 100 μM) [%]	Selectivity ([1]; listed as trans-SD)	IC50 ([1]; Homo sapiens, BT-20, 48 h) [µM]
Oc1ccc(C=Cc2c3c(cc4c2[C@@H](c2cc(O)cc(O)c2)[C@H](c2ccc(O)cc2)O4)O[C@H](c2ccc(O)cc2)[C@@H]3c2cc(O)cc(O)c2)cc1 [cis-suffruticosol D]	13.4 ± 2.5	20	22.2	27.1	45.3	significant down regulation	significant down regulation	significant down regulation	significant down regulation	42.3	42.0	50.4		
Oc1ccc(/C=C/c2c3c(cc4c2[C@@H](c2cc(O)cc(O)c2)[C@H](c2ccc(O)cc2)O4)O[C@H](c2ccc(O)cc2)[C@@H]3c2cc(O)cc(O)c2)cc1 [trans-suffruticosol D]			30.1	39.8	41.9	significant down regulation	significant down regulation	significant down regulation	significant down regulation	40.7	40.7	54.9	14.8	9.9 ± 3.8
